Values joined by “and” are separate entries in the source; they are usually repeats but may differ in a detail not shown here. Identical values can stand only once.
Assays:
MV-4-11 cells = experiment: Cell viability / growth inhibition (EZ-Cytox), MV-4-11; assay type: cell-based, human; conditions: 72 h; called IC50 in supplementary text
Description: The cultured cells were incubated at 37°C with 5% CO2. Cell viability was assessed with a tetrazolium-based assay using the EZ-Cytox Cell Viability Assay kit (DaeilLab, Korea). Briefly, 2,000 ∼ 15,000 cells were plated in 96-well flat bottom plates in 100 µl of medium. The next day, the cells were treated with compounds along with dimethyl sulfoxide (DMSO, Fisher, Waltham, MA, USA) as a negative control. […] After incubation, the optical density (OD) was measured at a wavelength of 450 nm with a Victor multilabel reader (Perkin Elmer, Waltham, MA, USA).

FLT3 = biological target: T1, FLT3 (Homo sapiens, UniProt P36888); experiment: In vitro FLT3 kinase assay (HTRF); assay type: biochemical; conditions: recombinant FLT3, HTRF; read-out: IC50 FLT3 kinase activity
T1 construct: Recombinant proteins containing the FLT3 kinase domain were purchased from Carna biosciences (Japan); purchased Carna biosciences (Japan)
T1 sequence (P36888 610-943 limits assumed): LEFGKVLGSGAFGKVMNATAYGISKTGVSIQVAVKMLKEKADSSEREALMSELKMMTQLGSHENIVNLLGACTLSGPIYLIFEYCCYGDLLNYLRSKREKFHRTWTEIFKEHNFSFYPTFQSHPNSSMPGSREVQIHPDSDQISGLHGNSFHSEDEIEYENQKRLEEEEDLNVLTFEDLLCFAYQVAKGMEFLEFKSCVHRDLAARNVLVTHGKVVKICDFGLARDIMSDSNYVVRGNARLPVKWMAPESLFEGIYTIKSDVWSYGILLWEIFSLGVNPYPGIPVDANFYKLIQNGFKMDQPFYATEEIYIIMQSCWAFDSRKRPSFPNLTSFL
Description: The inhibition of the FLT3 kinase activity was measured with homogeneous, time-resolved fluorescence (HTRF) assays. Recombinant proteins containing the FLT3 kinase domain were purchased from Carna biosciences (Japan). Optimal enzyme, ATP, and substrate concentrations were established with the HTRF KinEASE kit (Cisbio, France) according to the manufacturer’s instructions. The FLT3 enzymes were mixed with serially diluted compounds and peptide substrates in a kinase reaction buffer (50 mM HEPES (pH 7.0), 500 μM ATP, 0.1 mM sodium orthovanadate, 5 mM MgCl2, 1 mM DTT, 0.01% bovine serum albumin (BSA), and 0.02% NaN3). After the addition of the reagents for detection, the TR-FRET signal was measured with a Victor multilabel reader (Perkin Elmer, Waltham, MA, USA). […] JAK2, JAK3, cMET, and RET in vitro kinase assays were also carried out using the HTRF assay kit.

[1] = Pharmacokinetics in mice (intravenous and oral); assay type: in vivo, ICR mice; conditions: for AUC1940/AUC1937 / AUC / Ae0–24 h / Cmax / GI24 h / Terminal half-life / Tmax: mice
Description: The protocols for the animal studies were approved by the Institute of Laboratory Animal Resources of Dongguk University, Seoul, South Korea (IACUC-2015-055-1). Five-week-old male Imprinting Control Region (ICR) mice were purchased from the Charles River Company Korea (Orient, Seoul, South Korea). Upon arrival, the animals were randomized and housed four per cage under strictly controlled environmental conditions (22-25°C and 48-52% relative humidity) with a 12 h light/dark cycle at an intensity of 150 to 300 Lux. All mice were provided food and water ad libitum and were then maintained during this study. In the intravenous study of LDD1937, 10 mg/kg of LDD1937 (dissolved in distilled water at a concentration of 2 mg/ml) were intravenously injected into the mice through the tail vein. A blood sample of approximately 0.12 ml was collected by cardiac puncture. Additionally, in the oral study of LDD1937, 10 mg/kg of LDD1937 (dissolved in the same solution used in the intravenous study) were orally administered to the mice. The analysis of LDD1937 and LDD1940, a metabolite of LDD1937, in biological samples was done with LC-MS/MS using the Waters UPLC-XEVO TQ system (Waters Corporation, Milford, CT, USA). […]1940, and carbamazepine (an internal standard, IS) were ionized in the multiple reaction monitoring mode with an ESI interface for positive ions ([M+H]^+). The turbo ion-spray interface was operated at an ion capillary voltage of 3.0 kV with a desolvation gas flow of 650 l/h and a cone gas flow of 10 l/h at 350°C. […] Separation was done on a reverse-phase C18 column (BEH, […]; Waters, Ireland) with a mobile phase, distilled water containing 0.1% formic acid and acetonitrile, at 30°C. After measuring the concentrations of the LDD1937 and LDD1940, standard methods were used to calculate the pharmacokinetic parameters using a non-compartmental analysis (WinNonlin 2.1; […] Corp., Mountain View, CA, USA).

[2] = tested on: FLT3, VEGFR1/2, PDGFRβ, and PKCα/β/γ; set-up: method as in PMID 10888033; conditions: read-out: IC50s against kinases including FLT3, VEGFR1/2, PDGFRβ, and PKCα/β/γ; cited from earlier work
[3] = metabolite LDD1940 after 10 mg/kg LDD1937 intravenous
[4] = metabolite LDD1940 after 10 mg/kg LDD1937 oral

Row | Structure (SMILES) | GI50 (MV-4-11 cells) [nM] | IC50 (FLT3) | other results
1 | COC(=O)c1ccc2c(c1)/C(=C1/Nc3ccccc3/C1=N\OCCN1CCOCC1)C(=O)N2 [Compound 6] | 53 ± 11 | 253 ± 81.4 nM | –
2 | O=C1Nc2ccc(C(=O)O)cc2/C1=C1/Nc2ccccc2/C1=N\O [Compound 7] | > 1000 | – | GI50 MV-4-11 (MV-4-11 cells): lack of an anti-proliferative activity
3 | NCCO/N=C1/C(=C2/C(=O)Nc3ccc(C(=O)O)cc32)Nc2ccccc21 [Compound 9] | 150 ± 33 | 3.3 ± 0.11 nM | –
4 | Cl.Cl.O=C1Nc2ccc(C(=O)O)cc2/C1=C1/Nc2ccccc2/C1=N\OCCN1CCNCC1 [LDD1940] | 40 | 2.45 nM and 2.5 nM | AUC1940/AUC1937 ([1]; after 10 mg/kg LDD1937 intravenous): 42.7 ± 9.44%; AUC1940/AUC1937 ([1]; after 10 mg/kg LDD1937 oral): 65.3 ± 16.8%; Tmax of LDD1940 ([1]; after intravenous and oral administration of LDD1937, mice (span over both routes)): 1∼15 min; AUC [1, 3]: 54.6 ± 0.592 µg·min/mL; Ae0–24 h [1, 3]: 0.868 ± 0.0333 % of dose; Cmax [1, 3]: 1.45 ± 0.694 mg/mL; GI24 h [1, 3]: 0.719 ± 0.0556 % of dose; Terminal half-life [1, 3]: 142 ± 121 min; Tmax [1, 3]: 1 (1–1) min; AUC [1, 4]: 1.84 ± 0.0741 µg·min/mL; Ae0–24 h [1, 4]: 0.0787 ± 0.0791 % of dose; Cmax [1, 4]: 0.00817 ± 0.00244 mg/mL; GI24 h [1, 4]: 0.792 ± 1.09 % of dose; Terminal half-life [1, 4]: 742 ± 129 min; Tmax [1, 4]: 15 (15–120) min
5 | COC(=O)c1ccc2c(c1)/C(=C1/Nc3ccccc3/C1=N\OCCN1CCN(C)CC1)C(=O)N2 [Compound 5] | 11 ± 1.5 | 10.8 ± 2.02 nM | –
6 | O=C1Nc2ccc(C(=O)O)cc2/C1=C1/Nc2ccccc2/C1=N\OCCN1CCOCC1 [Compound 12] | > 1000 | 7.55 ± 1.01 nM | –
8 | O=C1Nc2ccc(C(=O)O)cc2/C1=C1/Nc2ccccc2/C1=N\OCCBr [Compound 8] | 340 ± 81 | 12.9 ± 0.97 nM | –
9 | CN1CCN(CCO/N=C2/C(=C3/C(=O)Nc4ccc(C(=O)O)cc43)Nc3ccccc32)CC1 [Compound 11] | 176 ± 51 | 3.3 ± 0.6 nM | –
10 | COC(=O)c1ccc2c(c1)/C(=C1/Nc3ccccc3/C1=N\OCCBr)C(=O)N2 [Compound 2] | 51 ± 11 | 19.2 ± 1.88 nM | –
11 | COC(=O)c1ccc2c(c1)/C(=C1/Nc3ccccc3/C1=N\OCCN)C(=O)N2 [Compound 3] | 15 ± 3 | 4.5 ± 0.75 nM | –

From PMC5787524, “Discovery of a FLT3 inhibitor LDD1937 as an anti-leukemic agent for acute myeloid leukemia” (Oncotarget, 2017)
